Data as given in paper PMC6825211 (Nature Communications, 2019).
“And” between values parts separate entries of the source, which are not always exact repeats. Identical values can stand only once.

Legend:
250 kinases = experiment: Nanosyn panel of 250 biochemical kinase assays; settings: 3 µM, of 250 kinases
Protocol: inhibition was determined for each assay.

MLD–STZ C57BL/6J mice [1] = experiment: MLD–STZ model: intraperitoneal glucose tolerance test (ipGTT); type: in vivo, mouse; set-up: ipGTT glucose / AUC ipGTT: unit not given here
Protocol: (§1) C57Bl/6J mice were injected with 40 mg/kg streptozotocin or citrate buffer for 5 consecutive days. […] In d, basal glucose values were normalized to 100%. e Insulin secretion measured from retro-orbital blood draw during an ipGTT measured before (0 min) and 15 min after glucose injection; data are expressed as the ratio of secreted insulin at 15 min/0 min (stimulatory index). f The ratio of secreted insulin and glucose is calculated at fed state. g–i Mice were killed at day 35. g β-cell mass (given as percentage of the whole pancreatic section from ten sections spanning the width of the pancreas) and quantitative analyses from triple staining for h TUNEL or i Ki67, insulin, and DAPI expressed as percentage of TUNEL- or Ki67-positive β-cells ±SEM. An average number of 2331 (h), or 26369 (i) β-cells were counted. n = 9 mice/group for (a); n = 4–12 for (b); n = 5–15 for (c) and (d); n = 12–19 for (e); n = 8–14 for (f); n = 4–9 for (g); n = 4–11 for (h); and n = 6–11 mice/groupfor (i); all from three independent experiments).
For intraperitoneal glucose tolerance tests, mice were fasted 12 h overnight and injected i.p. with glucose (40%; B.Braun, Melsungen, Germany) at a dose of 1 g/kg body weight. Blood samples were obtained at time points 0, 15, 30, 60, 90, and 120 min for glucose measurements by using a Glucometer. For i.p. insulin tolerance tests, mice were injected with 0.75 U/kg body weight recombinant human insulin (Novolin, Novo Nordisk) after 4–5-h fasting, and glucose concentration was determined with the Glucometer. Insulin secretion was measured before (0 min) and after (15 and 30 min) i.p. injection of glucose (2 g/kg) and measured by using ultrasensitive mouse Elisa kit (ALPCO Diagnostics, Salem, NH).

MLD–STZ C57BL/6J mice [2] = experiment: MLD–STZ model: insulin secretion during ipGTT (stimulatory index); type: in vivo, mouse; settings: glucose-stimulated, i.p.
Protocol: as §1
For intraperitoneal glucose tolerance tests, mice were fasted 12 h overnight and injected i.p. with glucose (40%; B.Braun, Melsungen, Germany) at a dose of 1 g/kg body weight. […] Insulin secretion was measured before (0 min) and after (15 and 30 min) i.p. injection of glucose (2 g/kg) and measured by using ultrasensitive mouse Elisa kit (ALPCO Diagnostics, Salem, NH).

[3] = tested on: obese diabetic Lepr db/db mice; experiment: db/db model: β-cell proliferation (pHH3); type: in vivo, mouse; settings: dbdb mice
[4] = MALDI imaging mass spectrometry of pancreas sections; type: in vivo, mouse
Protocol: MALDI imaging mass spectrometry (MALDI imaging MS) was performed on pancreas, liver, colon, stomach, kidney, heart, and brain tissue sections from WT C57BL/6J and db/db mice in triplicates. […] For MALDI imaging MS, 10-µm cryo sections were cut with a cryo-microtome (CM1860, Leica Biosystems, Nussloch, Germany) and mounted on indium–tin-coated conductive glass slides (Bruker Daltonics, Bremen, Germany). The matrix (HCCA in 50% ACN, 0.5% TFA) was applied with the ImagePrep Device (Bruker Daltonics), and MALDI spectra were recorded by using a Bruker autofleX speed mass spectrometer in positive reflector mode with a mass range of 400–1400 m/z. A large-size laser diameter was used with a lateral resolution of 100 µm, and 500 laser shots per pixel were accumulated with the random walk option set to 100 shots per position. […] Standards were spotted on mice liver cryo-sections and the spectral intensity was plotted.

MST1 = target: T1, MST1 (Homo sapiens, UniProt Q13043); experiment: biochemical
T1 sequence (Q13043 1-487): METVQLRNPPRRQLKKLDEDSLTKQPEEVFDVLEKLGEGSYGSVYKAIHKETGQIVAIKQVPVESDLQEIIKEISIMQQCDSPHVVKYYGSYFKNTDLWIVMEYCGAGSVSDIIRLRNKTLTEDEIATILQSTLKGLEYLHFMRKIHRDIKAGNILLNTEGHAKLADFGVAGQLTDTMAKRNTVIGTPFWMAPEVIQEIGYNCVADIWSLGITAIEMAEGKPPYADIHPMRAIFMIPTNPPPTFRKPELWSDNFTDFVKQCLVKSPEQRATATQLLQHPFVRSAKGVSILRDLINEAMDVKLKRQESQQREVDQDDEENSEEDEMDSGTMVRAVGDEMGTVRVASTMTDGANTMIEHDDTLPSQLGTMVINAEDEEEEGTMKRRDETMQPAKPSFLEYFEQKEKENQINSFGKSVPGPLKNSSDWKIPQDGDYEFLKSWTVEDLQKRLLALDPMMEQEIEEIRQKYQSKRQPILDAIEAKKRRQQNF

[5] = Pharmacokinetic study, single i.p. dose; settings: for AUC(0-inf): AUCINF
ITK = ITK (Homo sapiens, UniProt Q08881); experiment: Nanosyn kinase profiling, mobility shift assay; settings: read-out: % inhibition by neratinib
Sequence of ITK (Q08881 whole entry): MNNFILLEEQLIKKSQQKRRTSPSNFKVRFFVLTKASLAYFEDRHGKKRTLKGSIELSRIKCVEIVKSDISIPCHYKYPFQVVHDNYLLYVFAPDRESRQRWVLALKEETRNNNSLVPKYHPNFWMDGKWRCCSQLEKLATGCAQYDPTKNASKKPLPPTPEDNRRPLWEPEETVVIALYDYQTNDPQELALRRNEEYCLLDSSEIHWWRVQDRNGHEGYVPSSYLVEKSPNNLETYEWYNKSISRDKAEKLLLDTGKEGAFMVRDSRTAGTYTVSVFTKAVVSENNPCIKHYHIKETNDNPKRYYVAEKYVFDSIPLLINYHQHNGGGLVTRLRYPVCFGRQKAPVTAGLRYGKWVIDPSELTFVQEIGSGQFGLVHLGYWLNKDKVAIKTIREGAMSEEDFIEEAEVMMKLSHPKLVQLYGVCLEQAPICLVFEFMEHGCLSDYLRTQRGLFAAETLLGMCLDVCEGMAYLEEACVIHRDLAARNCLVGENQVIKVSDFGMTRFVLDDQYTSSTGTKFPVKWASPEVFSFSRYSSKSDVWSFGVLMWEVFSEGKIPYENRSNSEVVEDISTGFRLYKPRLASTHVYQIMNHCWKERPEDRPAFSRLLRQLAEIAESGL

JAK1 = JAK1 (Homo sapiens, UniProt P23458); experiment: Nanosyn kinase profiling, mobility shift assay; settings: read-out: % inhibition by neratinib
Sequence of JAK1 (P23458 whole entry): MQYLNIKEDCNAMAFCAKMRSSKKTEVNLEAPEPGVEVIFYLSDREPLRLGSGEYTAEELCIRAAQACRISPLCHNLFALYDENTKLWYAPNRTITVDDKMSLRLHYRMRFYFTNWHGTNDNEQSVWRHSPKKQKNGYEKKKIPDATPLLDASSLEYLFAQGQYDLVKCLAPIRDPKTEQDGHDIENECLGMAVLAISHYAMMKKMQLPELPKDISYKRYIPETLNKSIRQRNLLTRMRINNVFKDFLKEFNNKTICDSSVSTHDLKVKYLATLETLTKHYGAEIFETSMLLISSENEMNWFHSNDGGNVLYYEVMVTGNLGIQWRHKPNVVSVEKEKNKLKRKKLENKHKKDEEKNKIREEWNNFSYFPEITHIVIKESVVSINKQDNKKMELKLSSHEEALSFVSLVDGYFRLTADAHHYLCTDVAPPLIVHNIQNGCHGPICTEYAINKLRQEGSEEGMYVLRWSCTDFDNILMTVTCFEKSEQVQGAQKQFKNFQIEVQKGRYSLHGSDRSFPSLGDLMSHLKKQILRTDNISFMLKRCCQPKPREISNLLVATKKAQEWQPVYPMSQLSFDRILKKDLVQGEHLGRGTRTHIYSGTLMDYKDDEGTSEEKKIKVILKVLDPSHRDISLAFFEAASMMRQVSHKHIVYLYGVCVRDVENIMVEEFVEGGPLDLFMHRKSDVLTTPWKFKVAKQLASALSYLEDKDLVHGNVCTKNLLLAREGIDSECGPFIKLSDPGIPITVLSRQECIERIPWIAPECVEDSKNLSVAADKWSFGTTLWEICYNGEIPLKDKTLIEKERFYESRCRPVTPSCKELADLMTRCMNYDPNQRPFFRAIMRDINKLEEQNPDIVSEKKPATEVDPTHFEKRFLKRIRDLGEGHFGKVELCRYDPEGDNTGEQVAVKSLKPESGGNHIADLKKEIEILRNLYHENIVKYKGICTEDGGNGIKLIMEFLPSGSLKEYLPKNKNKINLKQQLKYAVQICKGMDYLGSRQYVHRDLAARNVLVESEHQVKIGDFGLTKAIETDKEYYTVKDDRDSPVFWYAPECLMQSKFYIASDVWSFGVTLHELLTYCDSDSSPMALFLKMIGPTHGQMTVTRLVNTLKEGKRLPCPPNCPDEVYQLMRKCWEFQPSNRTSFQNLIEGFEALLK

SRC = SRC (Homo sapiens, UniProt P12931); experiment: Nanosyn kinase profiling, mobility shift assay; settings: read-out: % inhibition by neratinib
Sequence of SRC (P12931 whole entry, species assumed): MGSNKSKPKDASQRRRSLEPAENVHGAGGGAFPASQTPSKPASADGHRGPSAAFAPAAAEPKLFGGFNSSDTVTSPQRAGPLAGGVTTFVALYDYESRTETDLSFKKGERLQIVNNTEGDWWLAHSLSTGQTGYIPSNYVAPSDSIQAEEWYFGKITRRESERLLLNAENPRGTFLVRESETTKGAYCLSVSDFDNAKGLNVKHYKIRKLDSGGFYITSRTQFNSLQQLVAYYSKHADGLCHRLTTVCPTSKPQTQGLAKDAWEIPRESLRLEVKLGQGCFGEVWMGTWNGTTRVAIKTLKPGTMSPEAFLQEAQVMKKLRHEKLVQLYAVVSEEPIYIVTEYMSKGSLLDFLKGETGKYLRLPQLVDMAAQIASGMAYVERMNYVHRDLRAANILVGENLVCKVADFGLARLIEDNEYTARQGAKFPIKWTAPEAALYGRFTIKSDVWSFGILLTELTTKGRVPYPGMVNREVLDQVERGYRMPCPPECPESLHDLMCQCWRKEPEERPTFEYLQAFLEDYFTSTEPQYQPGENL

[6] = 5 mg/kg IP, individual animals 1-3

SMILES: CCOc1cc2ncc(C#N)c(Nc3ccc(OCc4ccccn4)c(Cl)c3)c2cc1NC(=O)/C=C/CN(C)C [neratinib]
- number of kinases with 50% of inhibition (250 kinases): 59
- glucose tolerance in STZ mice (MLD–STZ C57BL/6J mice [1]; 5 mg/kg i.p. daily): significantly improved glucose tolerance
- ipGTT glucose (MLD–STZ C57BL/6J mice [1]; NeraCtr, 0 min, Mean): 59.25
- ipGTT glucose (MLD–STZ C57BL/6J mice [1]; NeraCtr, 0 min after glc, individual mice): 51 and 48 and 70 and 68
- ipGTT glucose (MLD–STZ C57BL/6J mice [1]; NeraCtr, 15 min, Mean): 210.75
- ipGTT glucose (MLD–STZ C57BL/6J mice [1]; NeraCtr, 15 min after glc, individual mice): 211 and 183 and 258 and 191
- ipGTT glucose (MLD–STZ C57BL/6J mice [1]; NeraCtr, 30 min, Mean): 316.5
- ipGTT glucose (MLD–STZ C57BL/6J mice [1]; NeraCtr, 30 min after glc, individual mice): 290 and 203 and 500 and 273
- ipGTT glucose (MLD–STZ C57BL/6J mice [1]; NeraCtr, 60 min, Mean): 219.25
- ipGTT glucose (MLD–STZ C57BL/6J mice [1]; NeraCtr, 60 min after glc, individual mice): 166 and 171 and 373 and 167
- ipGTT glucose (MLD–STZ C57BL/6J mice [1]; NeraCtr, 90 min, Mean): 134.5
- ipGTT glucose (MLD–STZ C57BL/6J mice [1]; NeraCtr, 90 min after glc, individual mice): 133 and 136 and 158 and 111
- ipGTT glucose (MLD–STZ C57BL/6J mice [1]; NeraCtr, 120 min, MEAN): 96
- ipGTT glucose (MLD–STZ C57BL/6J mice [1]; NeraCtr, 120 min after glc, individual mice): 91 and 96 and 116 and 81
- AUC ipGTT (MLD–STZ C57BL/6J mice [1]; NeraCtr, individual mice): 20407.5 and 18322.5 and 14535 and 19072.5
- ipGTT glucose (MLD–STZ C57BL/6J mice [1]; NeraSTZ, 0 min, mean line): 61.5
- ipGTT glucose (MLD–STZ C57BL/6J mice [1]; NeraSTZ, 0 min after glc, individual mice): 67 and 66 and 51 and 57 and 80 and 63 and 62 and 69 and 65 and 44
- ipGTT glucose (MLD–STZ C57BL/6J mice [1]; NeraSTZ, 15 min, mean line): 285.917
- ipGTT glucose (MLD–STZ C57BL/6J mice [1]; NeraSTZ, 15 min after glc, individual mice): 304 and 272 and 259 and 246 and 291 and 315 and 312 and 420 and 217 and 264
- ipGTT glucose (MLD–STZ C57BL/6J mice [1]; NeraSTZ, 30 min, mean line): 319.5
- ipGTT glucose (MLD–STZ C57BL/6J mice [1]; NeraSTZ, 30 min after glc, individual mice): 308 and 348 and 303 and 268 and 319 and 424 and 341 and 371 and 315 and 292 and 282 and 263
- ipGTT glucose (MLD–STZ C57BL/6J mice [1]; NeraSTZ, 60 min, mean line): 284.417
- ipGTT glucose (MLD–STZ C57BL/6J mice [1]; NeraSTZ, 60 min after glc, individual mice): 274 and 307 and 368 and 214 and 271 and 308 and 291 and 343 and 321 and 283 and 219
- ipGTT glucose (MLD–STZ C57BL/6J mice [1]; NeraSTZ, 90 min after glc, individual mice): 181 and 290 and 234 and 159 and 228 and 264 and 184 and 260 and 250 and 205 and 248 and 195
- ipGTT glucose (MLD–STZ C57BL/6J mice [1]; NeraSTZ, 120 min after glc, individual mice): 136 and 229 and 175 and 112 and 213 and 180 and 169 and 210 and 211 and 164 and 187
- AUC ipGTT (MLD–STZ C57BL/6J mice [1]; NeraSTZ, individual mice): 27682.5 and 33750 and 31770 and 23017.5 and 30135 and 34725 and 29565 and 36360 and 31732.5
- impaired insulin secretion in STZ-treated mice (MLD–STZ C57BL/6J mice [2]): significantly improved
- pHH3 %/ mouse ([3]; Mean): 0.4112%
- pHH3 %/ mouse ([3]; individual mice): 0.7567% and 0.6289% and 0.2824% and 0.1109% and 0.2748% and 0.4135%
- neratinib in pancreatic tissue ([4]; WT mice, 4 h after i.p. injection): clearly detected
- neratinib signal in pancreas tissue sections ([4]; db/db mice, 4-week daily i.p. injection): specific signal was obtained
- inhibition at 10 µM (MST1; read-out: % inhibition by neratinib): 98%
- inhibition at 3 µM (MST1; read-out: MST1 inhibition): 97%
- Cl ([5]; 5 mg/kg IP, AVERAGE n=3): 263.8 mL/min/kg
- VD ([5]; 5 mg/kg IP, AVERAGE n=3): 58.9 L/kg
- AUC0-24 [5, 6]: 1.9671 µM·h and 2.1252 µM·h
- AUCINF [5, 6]: 2.1537 µM·h and 2.2985 µM·h
- AUCLAST [5, 6]: 1.9671 µM·h and 2.1252 µM·h
- Cl [5, 6]: 253.1 mL/min/kg and 277.9 mL/min/kg and 260.4 mL/min/kg
- Cmax [5, 6]: 557 nM and 623 nM
- MRT [5, 6]: 2.3 h
- Tmax [5, 6]: 1.0 h
- VD [5, 6]: 86.9 L/kg and 46.7 L/kg and 43.1 L/kg
- t1/2 [5, 6]: 4.0 hr and 1.9 hr (2×)
- maximum concentration ([5]; 5 mg/kg single i.p. dose, plasma, fasted mice): 306 ng/mL
- AUC(0-t) ([5]; mouse, plasma, ip, 5 mg/kg, AUC0-24, 5 mg/kg IP, AVERAGE n=3): 1.9 µM·h
- AUC(0-t) ([5]; mouse, plasma, ip, 5 mg/kg, AUC0-24, 5 mg/kg IP, individual animals 1-3): 1.62 µM·h
- AUC(0-inf) ([5]; mouse, plasma, ip, 5 mg/kg, 5 mg/kg IP, AVERAGE n=3): 2.27 µM·h
- AUC(0-inf) ([5]; mouse, plasma, ip, 5 mg/kg, 5 mg/kg IP, individual animals 1-3): 2.36 µM·h
- AUC(0-t) ([5]; mouse, plasma, ip, 5 mg/kg, AUCLAST, 5 mg/kg IP, AVERAGE n=3): 1.9 µM·h
- AUC(0-t) ([5]; mouse, plasma, ip, 5 mg/kg, AUCLAST, 5 mg/kg IP, individual animals 1-3): 1.62 µM·h
- Cmax ([5]; mouse, plasma, ip, 5 mg/kg, Cmax, 5 mg/kg IP, AVERAGE n=3): 549 nM
- Cmax ([5]; mouse, plasma, ip, 5 mg/kg, Cmax, 5 mg/kg IP, individual animals 1-3): 469 nM
- MRT ([5]; mouse, plasma, ip, 5 mg/kg, MRT, 5 mg/kg IP, AVERAGE n=3): 2.4 h
- MRT ([5]; mouse, plasma, ip, 5 mg/kg, MRT, 5 mg/kg IP, individual animals 1-3): 2.7 h
- Tmax ([5]; mouse, plasma, ip, 5 mg/kg, Tmax, 5 mg/kg IP, AVERAGE n=3): 0.7 h
- Tmax ([5]; mouse, plasma, ip, 5 mg/kg, Tmax, 5 mg/kg IP, individual animals 1-3): 0.5 h
- half-life ([5]; mouse, plasma, ip, 5 mg/kg, t1/2, 5 mg/kg IP, AVERAGE n=3): 2.6 h
- Tmax ([5]; mouse, plasma, ip, 5 mg/kg, time of maximum concentration post dosing, 5 mg/kg single i.p. dose, average): 0.67 h
- inhibition at 10 µM (ITK): 88%
- inhibition at 10 µM (JAK1): 5%
- inhibition at 10 µM (SRC): 73%
